Data reported in US12655130B2 (ASSEMBLY BIOSCIENCES, INC., priority 2020, dated 2026).
Where two headings read alike, the source gives them in different places.

Tested on: HBV viral load (viral production from HepAD38 cells)
Test: Activity of test compounds on viral production from HepAD38 cells (viral load by qPCR of HBV core sequence)
Format: cell-based
Details: viral load lowering, 5 days, qPCR of supernatant, read-out: VL HepAD38 EC50 range
Description: Assay Measuring Activity of Test Compounds on Viral Production from HepAD38 Cells
HepAD38 cells grown in a T-150 flask (Corning, cat #: 430825) with Growth Medium (DMEM/F12 (1:1) (Hyclone, cat #: SH30023.02), 1× Pen/Strep (Invitrogen, cat #: 15140-122), 10% FBS (Tissue Culture Biologics, cat #: 101), 250 μg/mL G418 (Alfa Aesar, cat #: J62671), 1 μg/mL Tetracycline (Teknova, cat #: T3320)) were detached with 0.25% trypsin-EDTA (Invitrogen, cat #: 25200-056). Tetracycline-free treatment medium (15 mL DMEM/F12 (1:1) 1× Pen/step, with 2% FBS, Tet-system approved (Clontech, cat #: 631106) were then added to mix, transferred into a 50 ml conical tube (Falcon, cat #: 21008-918) and spun at 1300 rpm for 5 min. Pelleted cells were then re-suspended/washed with 50 mL of 1×DPBS (Invitrogen, cat #: 14190-136) 2 times and 50 mL treatment medium twice. HepAD38 cells were then re-suspended with 10 mL of treatment medium, syringed and counted. Wells of 96-well clear bottom TC plate (Corning, cat #: 3904) were seeded at 50,000 cells/well in 180 μL of treatment medium, and 20 μL of either 10% DMSO (Sigma, cat #: D4540) as controls or a 10× solution of test compounds in 10% DMSO in treatment media was added for a final compound concentration starting at 10 μM, and plates were incubated in 5% CO2 incubator at 37° C. for 5 days.
Subsequently viral load production was assayed by quantitative PCR (qPCR) of the HBV core sequence. PCR reaction mixture containing forward primers HBV-f 5′-CTGTGCCTTGGGTGGCITT-3′ (IDT DNA), Reverse primers HBV-r 5′-[…]-3′ (IDT DNA), Fluorescent TaqMan™ Probes HBV-probe 5′-FAM/AGCTCCAAA/ZENMITCTITATAAGGGTCGATGTC/3IABkFQ-3′ (IDT DNA), 10 μL/well of PerfeCTa® qPCR ToughMix® (Quanta Biosciences, Cat #: 95114-05K), and 6 μL/well of DEPC water (Alfa Aesar, cat #: J62087) was prepared. Four μL of supernatant was added to 16 μL of the reaction mixture in a qPCR plate (Applied Biosytems, Cat #: 4309849), sealed with a film (Applied Biosystems, Cat #: 4311971), centrifuged for a few seconds, and subsequently run on an Applied Biosystems VIIA7. The PCR mixture was incubated at 45° C. for 5 min, then 95° C. for 10 min, followed by 40 cycles of 10 seconds at 95° C. and 20 seconds at 60° C. Viral load was quantified against known HBV DNA standards by using ViiA™ 7 Software. Viral load in the supernatant from wells with treated cells were compared against viral load in supernatant from DMSO control wells (3 per plate). Cell viability assay was performed with CellTiter-Glo Luminescent Cell Viability Assay (Promega, cat #: G7573) with modification. Mixed appropriate amount of CellTiter-Glo (CTG) 1×DPBS in a 1:1 ratio, added 100 uL of the mixture to each well followed completely removal of all supernatant in each well without touching cell surface. Incubated the plate at room temperature for 10 min on an orbital shaker, and then read the plate with a plate reader (TECAN M1000 or Envision). EC50 or CC50 values were calculated through curve-fitting of the four-parameter nonlinear-logistic-regression model (GraphPad Prism or Dotmatics). CC50 values were all >10 μM.

[1] = Hepatitis B virus, HePAD38, 120 h

Row | Structure (SMILES) | EC50 [1] [nM] | EC50 [nM]
1 | Cn1cnc(C2CC3CC(=O)CC3C2)c1C(=O)Nc1ccc(F)c(Cl)c1 (single isomer, unassigned) [Example 1, N-(3-Chloro-4-fluorophenyl)-1-methyl-4-(5-oxooctahydropentalen-2-yl)-1H-imidazole-5-carboxamide] | < 10 | 
2 | Cn1cnc(C2CC3CC(O)CC3C2)c1C(=O)Nc1ccc(F)c(Cl)c1 (single isomer, unassigned) [Example 2, N-(3-Chloro-4-fluorophenyl)-4-(5-hydroxyoctahydropentalen-2-yl)-1-methyl-1H-imidazole-5-carboxamide] | < 10 | 
3 | Cn1cnc(C2CC3CC(O)(CS(C)(=O)=O)CC3C2)c1C(=O)Nc1ccc(F)c(Cl)c1 (single isomer, unassigned) [Example 3, N-(3-Chloro-4-fluorophenyl)-4-(5-hydroxy-5-((methylsulfonyl)methyl)octahydropentalen-2-yl)-1-methyl-1H-imidazole-5-carboxamide] | < 10 | 
4 | Cn1cnc(C2(O)CC3CC(c4ncn(C)c4C(=O)Nc4ccc(F)c(Cl)c4)CC3C2)c1 (single isomer, unassigned) [Example 4, N-(3-Chloro-4-fluorophenyl)-4-(5-hydroxy-5-(1-methyl-1H-imidazol-4-yl)octahydropentalen-2-yl)-1-methyl-1H-imidazole-5-carboxamide] | < 10 | 
5 | Cn1ccnc1C1(O)CC2CC(c3ncn(C)c3C(=O)Nc3ccc(F)c(Cl)c3)CC2C1 (single isomer, unassigned) [Example 5, N-(3-Chloro-4-fluorophenyl)-4-(5-hydroxy-5-(1-methyl-1H-imidazol-2-yl)octahydropentalen-2-yl)-1-methyl-1H-imidazole-5-carboxamide] | < 10 | 
6 | Cn1cnc(C2CC3CC(O)(CO)CC3C2)c1C(=O)Nc1ccc(F)c(Cl)c1 (single isomer, unassigned) [Example 19, N-(3-Chloro-4-fluorophenyl)-4-(5-hydroxy-5-(hydroxymethyl)octahydro-pentalen-2-yl)-1-methyl-1H-imidazole-5-carboxamide] | < 10 | 
7 | Cn1cnc(C2CC3CC(O)(CO)CC3C2)c1C(=O)Nc1ccc(F)c(Cl)c1 (single isomer, unassigned) [Example 20, N-(3-Chloro-4-fluorophenyl)-4-(5-hydroxy-5-(hydroxymethyl)octahydro-pentalen-2-yl)-1-methyl-1H-imidazole-5-carboxamide] |  | < 10
8 | Cc1nc(C2CC3CC(O)(c4nccn4C)CC3C2)c(C(=O)Nc2ccc(F)c(Cl)c2)n1C (single isomer, unassigned) [Example 27, N-(3-Chloro-4-fluorophenyl)-4-(5-hydroxy-5-(1-methyl-1H-imidazol-2-yl)octahydropentalen-2-yl)-1,2-dimethyl-1H-imidazole-5-carboxamide] | < 10 | 
9 | O=C(Nc1ccc(F)c(Cl)c1)c1c(C2CC3CC(O)CC3C2)nc2n1CCC2 (single isomer, unassigned) [Example 32, N-(3-Chloro-4-fluorophenyl)-2-(5-hydroxyoctahydropentalen-2-yl)-6,7-dihydro-5H-pyrrolo[1,2-a]imidazole-3-carboxamide] | 10 to 50 | 
10 | O=C(Nc1ccc(F)c(Cl)c1)c1c(C2CC3CC(O)CC3C2)nc2n1CCC2 (single isomer, unassigned) [Example 33, N-(3-Chloro-4-fluorophenyl)-2-(5-hydroxyoctahydropentalen-2-yl)-6,7-dihydro-5H-pyrrolo[1,2-a]imidazole-3-carboxamide] |  | < 10
11 | O=C(Nc1ccc(F)c(Cl)c1)c1c(C2CC3CC(O)(C(F)(F)F)CC3C2)nc2n1CCC2 (single isomer, unassigned) [Example 34, N-(3-Chloro-4-fluorophenyl)-2-(5-hydroxy-5-(trifluoromethyl)octahydropentalen-2-yl)-6,7-dihydro-5H-pyrrolo[1,2-a]imidazole-3-carboxamide] | 10 to 50 | 
12 | CS(=O)(=O)CC1(O)CC2CC(c3nc4n(c3C(=O)Nc3ccc(F)c(Cl)c3)CCC4)CC2C1 (single isomer, unassigned) [Example 35, N-(3-Chloro-4-fluorophenyl)-2-(5-hydroxy-5-((methylsulfonyl)methyl)octahydropentalen-2-yl)-6,7-dihydro-5H-pyrrolo[1,2-a]imidazole-3-carboxamide] | < 10 | 
13 | Cn1cnc(C2CC3CC(NC4CC4)CC3C2)c1C(=O)Nc1ccc(F)c(Cl)c1 (single isomer, unassigned) [Example 44, 5-[-5-(Cyclopropylamino)-1,2,3,3a,4,5,6,6a-octahydropentalen-2-yl]-N-(3-chloro-4-fluorophenyl)-3-methyl-4-imidazolecarboxamide] | 10 to 50 | 
14 | Cn1cnc(C2CC3CC(NC4CC4)CC3C2)c1C(=O)Nc1ccc(F)c(Cl)c1 (single isomer, unassigned) [Example 45, 5-[-5-(Cyclopropylamino)-1,2,3,3a,4,5,6,6a-octahydropentalen-2-yl]-N-(3-chloro-4-fluorophenyl)-3-methyl-4-imidazolecarboxamide] |  | 10 to 50
15 | Cn1cnc(C2CC3CC(O)(c4cc([N+](=O)[O-])nn4C)CC3C2)c1C(=O)Nc1ccc(F)c(Cl)c1 (single isomer, unassigned) [Example 50, N-(3-Chloro-4-fluorophenyl)-4-(5-hydroxy-5-(1-methyl-3-nitro-1H-pyrazol-5-yl)octahydropentalen-2-yl)-1-methyl-1H-imidazole-5-carboxamide] | < 10 | 
16 | CC(CO)Oc1cc(C2(O)CC3CC(c4ncn(C)c4C(=O)Nc4ccc(F)c(Cl)c4)CC3C2)n(C)n1 (single isomer, unassigned) [Example 68, N-(3-Chloro-4-fluorophenyl)-4-(5-hydroxy-5-(3-((1-hydroxypropan-2-yl)oxy)-1-methyl-1H-pyrazol-5-yl)octahydropentalen-2-yl)-1-methyl-1H-imidazole-5-carboxamide] | < 10 | 
17 | CC(CO)Oc1cc(C2(O)CC3CC(c4ncn(C)c4C(=O)Nc4ccc(F)c(Cl)c4)CC3C2)n(C)n1 (single isomer, unassigned) [Example 69, N-(3-Chloro-4-fluorophenyl)-4-(5-hydroxy-5-(3-((1-hydroxypropan-2-yl)oxy)-1-methyl-1H-pyrazol-5-yl)octahydropentalen-2-yl)-1-methyl-1H-imidazole-5-carboxamide] |  | 10 to 50
18 | CN(C)Cc1cnn(C)c1C1(O)CC2CC(c3ncn(C)c3C(=O)Nc3ccc(F)c(Cl)c3)CC2C1 (single isomer, unassigned) [Example 70, N-(3-Chloro-4-fluorophenyl)-4-(5-(4-((dimethylamino)methyl)-1-methyl-1H-pyrazol-5-yl)-5-hydroxyoctahydropentalen-2-yl)-1-methyl-1H-imidazole-5-carboxamide] | < 10 | 
19 | Cc1cc(C2(O)CC3CC(c4ncn(C)c4C(=O)Nc4ccc(F)c(Cl)c4)CC3C2)n(C)n1 (single isomer, unassigned) [Example 71, N-(3-Chloro-4-fluorophenyl)-4-(5-(1,3-dimethyl-1H-pyrazol-5-yl)-5-hydroxyoctahydropentalen-2-yl)-1-methyl-1H-imidazole-5-carboxamide] | < 10 | 
20 | Cn1cnc(C2CC3CC(O)(c4cc(C(F)(F)F)nn4C)CC3C2)c1C(=O)Nc1ccc(F)c(Cl)c1 (single isomer, unassigned) [Example 72, N-(3-Chloro-4-fluorophenyl)-4-(5-hydroxy-5-(1-methyl-3-(trifluoromethyl)-1H-pyrazol-5-yl)octahydropentalen-2-yl)-1-methyl-1H-imidazole-5-carboxamide] | < 10 | 
